Test system: 521955-158-R2-J5-PDC complex spheroid viability
Assay: Anticancer human tumor 521955-158-R2-J5-PDC patient-derived pancreatic carcinoma cell line growth inhibition [GQUAD]
Settings: for IC50: curve of first compound; for viability, T/C: stronger effect = lower value; active means viability on the fitted dose curve at most 10% of control; inactive means the rest
Summary of the method: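 Viability of tumor cells grown as complex spheroids with endothelial and stromal cells, exposed to drug combinations. Top concentration at or near clinical Cmax (else 10 microM), diluted in half-log increments.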

[1] = second compound 0.0316 µM, first compound 0.0316 µM
[2] = second compound 0.0316 µM, first compound 0.1 µM
[3] = second compound 0.0316 µM, first compound 0.316 µM
[4] = second compound 0.0316 µM, first compound 1 µM
[5] = second compound 0.0316 µM, first compound 3.16 µM
[6] = second compound 0.0316 µM, first compound 10 µM
[7] = second compound 0.1 µM, first compound 0.0316 µM
[8] = second compound 0.1 µM, first compound 0.1 µM
[9] = second compound 0.1 µM, first compound 0.316 µM
[10] = second compound 0.1 µM, first compound 1 µM
[11] = second compound 0.1 µM, first compound 3.16 µM
[12] = second compound 0.1 µM, first compound 10 µM
[13] = second compound 0.316 µM, first compound 0.0316 µM
[14] = second compound 0.316 µM, first compound 0.1 µM
[15] = second compound 0.316 µM, first compound 0.316 µM
[16] = second compound 0.316 µM, first compound 1 µM
[17] = second compound 0.316 µM, first compound 3.16 µM
[18] = second compound 0.316 µM, first compound 10 µM
[19] = second compound 1 µM, first compound 0.0316 µM
[20] = second compound 1 µM, first compound 0.1 µM
[21] = second compound 1 µM, first compound 0.316 µM
[22] = second compound 1 µM, first compound 1 µM
[23] = second compound 1 µM, first compound 3.16 µM
[24] = second compound 1 µM, first compound 10 µM
[25] = second compound 3.16 µM, first compound 0.0316 µM
[26] = second compound 3.16 µM, first compound 0.1 µM
[27] = second compound 3.16 µM, first compound 0.316 µM
[28] = second compound 3.16 µM, first compound 1 µM
[29] = second compound 3.16 µM, first compound 3.16 µM
[30] = second compound 3.16 µM, first compound 10 µM
[31] = second compound 10 µM, first compound 0.0316 µM
[32] = second compound 10 µM, first compound 0.1 µM
[33] = second compound 10 µM, first compound 0.316 µM
[34] = second compound 10 µM, first compound 1 µM
[35] = second compound 10 µM, first compound 3.16 µM
[36] = second compound 10 µM, first compound 10 µM
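Further: spheroids exposed to agents for one week before reading.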
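Wherever viability, T/C is given: 100% = DMSO vehicle control viability.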

CC1COCCN1c1cc(C2(S(C)(=N)=O)CC2)nc(-c2ccnc3[nH]ccc23)n1 (centres undefined) + Cc1[nH]c2ccc(F)cc2c1-c1nc2c3cccnc3c3ncccc3c2[nH]1
active: viability, T/C [11] 8.56% | viability, T/C [12] 8.84% | viability, T/C [17] 9.15% | viability, T/C [18] 10.3%
724 nM: IC50 (second compound 10 µM)
inactive: viability, T/C [1] 113% | viability, T/C [2] 103% | viability, T/C [3] 114% | viability, T/C [4] 22.6% | viability, T/C [5] 10.1% | viability, T/C [6] 11.7% | viability, T/C [7] 96.6% | viability, T/C [8] 109% | viability, T/C [9] 111% | viability, T/C [10] 35.9% | viability, T/C [13] 108% | viability, T/C [14] 91.7% | viability, T/C [15] 101% | viability, T/C [16] 31.7% | viability, T/C [19] 93.2% | viability, T/C [20] 104% | viability, T/C [21] 117% | viability, T/C [22] 27.1% | viability, T/C [23] 11.5% | viability, T/C [24] 11.7% | viability, T/C [25] 85.2% | viability, T/C [26] 105% | viability, T/C [27] 99.1% | viability, T/C [28] 39.3% | viability, T/C [29] 13.7% | viability, T/C [30] 8.99% | viability, T/C [31] 109% | viability, T/C [32] 105% | viability, T/C [33] 110% | viability, T/C [34] 27.4% | viability, T/C [35] 14.7% | viability, T/C [36] 10.9%
736 nM: IC50 (second compound 0.316 µM)
712 nM: IC50 (second compound 1 µM)
806 nM: IC50 (second compound 3.16 µM)
698 nM: IC50 (second compound 0.0316 µM)
793 nM: IC50 (second compound 0.1 µM)

COc1ccc([C@@H](O)c2cc(-c3ncnc4cc(N5CCOCC5)ccc34)c(F)cc2Cl)nn1 + Cc1[nH]c2ccc(F)cc2c1-c1nc2c3cccnc3c3ncccc3c2[nH]1
1960 nM: IC50 (second compound 3.16 µM)
2690 nM: IC50 (second compound 0.1 µM)
3080 nM: IC50 (second compound 10 µM)
3670 nM: IC50 (second compound 1 µM)
3700 nM: IC50 (second compound 0.316 µM)
inactive: viability, T/C [1] 93% | viability, T/C [2] 92.3% | viability, T/C [3] 73.7% | viability, T/C [4] 62.3% | viability, T/C [5] 56% | viability, T/C [6] 34.5% | viability, T/C [7] 88.6% | viability, T/C [8] 93% | viability, T/C [9] 69.7% | viability, T/C [10] 66.7% | viability, T/C [11] 47.1% | viability, T/C [12] 34.1% | viability, T/C [13] 82.3% | viability, T/C [14] 95.6% | viability, T/C [15] 83.2% | viability, T/C [16] 68.6% | viability, T/C [17] 54.3% | viability, T/C [18] 34.9% | viability, T/C [19] 88.4% | viability, T/C [20] 112% | viability, T/C [21] 88.5% | viability, T/C [22] 66.6% | viability, T/C [23] 58.4% | viability, T/C [24] 32.2% | viability, T/C [25] 86.1% | viability, T/C [26] 90.5% | viability, T/C [27] 75.9% | viability, T/C [28] 60.4% | viability, T/C [29] 43.3% | viability, T/C [30] 32.2% | viability, T/C [31] 99.4% | viability, T/C [32] 88.6% | viability, T/C [33] 74.9% | viability, T/C [34] 64.3% | viability, T/C [35] 54.6% | viability, T/C [36] 30.4%
3520 nM: IC50 (second compound 0.0316 µM)

Source: PubChem BioAssay AID2060495 (Molecular Pharmacology Branch, DTP, NCI, 2025)
